# Results reported in publication PMC9519446, “Discovery of an Orally Active Benzoxaborole Prodrug Effective in the Treatment of Chagas Disease in Non-human Primates” (Nature microbiology, 2022).
# Values joined by “and” are separate entries in the source; they are usually repeats but may differ in a detail not shown here. Equal values may be shown once.
# Columns and labels:
# [1] = NHP health screening: hematology (CBC); type: in vivo, rhesus macaques (Macaca mulatta); details: treated macaques, individual animals
# Method: Under light-anesthesia/sedation, peripheral blood samples were collected from each animal prior to treatment and at 7 time points following. Blood analysis (CBC and serum chemistry assays) and physical exams to evaluate the health of the study animals were performed on each animal prior to the beginning of the study and also at three time points during the treatment protocol (see Supplementary data).
# [2] = tested on: Luciferase expressing T. cruzi (Colombiana strain); test: Low dose short treatment (whole body bioluminescence); type: in vivo, Hairless mice (SKH-1)
# Excerpt: Bioluminiscence signal of the whole body was measure after D-luciferin injection in a Lumina II IVIS in vivo imager equipped with the Living Imaging 4.0 software (PerkinElmer).
smiles,measurement,setting,value
Cc1c(C(=O)N[C@H](C(=O)OCC2CCOCC2)C(C)C)ccc2c1B(O)OC2 [AN15368],Hgb,[1]; mid-dosing bleed,13.1 G/Dl and 14.2 G/Dl and 12.7 G/Dl and 14.6 G/Dl and 12.8 G/Dl and 13.9 G/Dl and 13.4 G/Dl and 13.5 G/Dl and 12.5 G/Dl and 12.6 G/Dl and 14 G/Dl and 13.6 G/Dl and 11.9 G/Dl and 12.9 G/Dl
same,Lymp,[1]; mid-dosing bleed,3.35 10^3/µL and 4.79 10^3/µL and 3.28 10^3/µL and 5.22 10^3/µL and 2.3 10^3/µL and 2.17 10^3/µL and 3.7 10^3/µL and 4.02 10^3/µL and 5.12 10^3/µL and 2.39 10^3/µL and 2.58 10^3/µL and 3.15 10^3/µL and 3.84 10^3/µL and 2.63 10^3/µL and 2.99 10^3/µL and 4.63 10^3/µL and 1.5 10^3/µL and 2.51 10^3/µL and 3.89 10^3/µL
same,Mch,[1]; mid-dosing bleed,23.8 Pgs and 22.9 Pgs and 24.1 Pgs and 24.7 Pgs and 24 Pgs and 22.6 Pgs and 24.4 Pgs and 23.9 Pgs and 22.5 Pgs and 23.1 Pgs and 23.3 Pgs and 23.7 Pgs and 22.8 Pgs and 23 Pgs and 22.7 Pgs and 23.6 Pgs
same,Mchc,[1]; mid-dosing bleed,31.8 G/Dl and 33.3 G/Dl and 31.2 G/Dl and 31.7 G/Dl and 32.2 G/Dl and 32 G/Dl and 32.8 G/Dl and 32.5 G/Dl and 30.8 G/Dl and 32.1 G/Dl and 31.6 G/Dl and 31.9 G/Dl and 33.2 G/Dl and 32.3 G/Dl
same,Mcv,[1]; mid-dosing bleed,74.9 fL and 68.9 fL and 77.2 fL and 78 fL and 74.5 fL and 70.8 fL and 74.6 fL and 73.8 fL and 72.9 fL and 76.6 fL and 72.2 fL and 76.4 fL and 74.7 fL and 74.4 fL and 71.4 fL and 72.1 fL and 71.2 fL
same,Mono,[1]; mid-dosing bleed,0.25 10^3/µL and 0.22 10^3/µL and 0.19 10^3/µL and 0.43 10^3/µL and 0.26 10^3/µL and 0.21 10^3/µL and 0.16 10^3/µL and 0.58 10^3/µL and 0.3 10^3/µL and 0.38 10^3/µL and 0.13 10^3/µL and 0.32 10^3/µL and 0.28 10^3/µL and 0.08 10^3/µL and 0.17 10^3/µL and 0.5 10^3/µL
same,Mpv,[1]; mid-dosing bleed,6.5 fL and 7.2 fL and 7.4 fL and 9.2 fL and 9.1 fL and 6.8 fL and 6.6 fL and 6.7 fL and 7.7 fL and 8.1 fL and 7.9 fL and 7.1 fL and 7.5 fL and 8.8 fL and 8.5 fL
same,Neut,[1]; mid-dosing bleed,1.09 10^3/µL and 1.04 10^3/µL and 2.08 10^3/µL and 1.9 10^3/µL and 3.38 10^3/µL and 1.51 10^3/µL and 1.78 10^3/µL and 2.28 10^3/µL and 1.12 10^3/µL and 2.03 10^3/µL and 1.69 10^3/µL and 3.43 10^3/µL and 3.82 10^3/µL and 1.6 10^3/µL and 3.07 10^3/µL and 1.17 10^3/µL and 1.61 10^3/µL and 1.53 10^3/µL and 0.96 10^3/µL
same,Plt,[1]; mid-dosing bleed,354 10^3/µL and 311 10^3/µL and 210 10^3/µL and 266 10^3/µL and 220 10^3/µL and 317 10^3/µL and 438 10^3/µL and 380 10^3/µL and 279 10^3/µL and 251 10^3/µL and 373 10^3/µL and 367 10^3/µL and 434 10^3/µL and 280 10^3/µL and 260 10^3/µL and 432 10^3/µL and 291 10^3/µL and 288 10^3/µL and 306 10^3/µL
same,Rbc,[1]; mid-dosing bleed,5.5 10^6/µL and 6.2 10^6/µL and 5.27 10^6/µL and 5.91 10^6/µL and 5.33 10^6/µL and 6.13 10^6/µL and 5.36 10^6/µL and 5.46 10^6/µL and 5.69 10^6/µL and 5.47 10^6/µL and 5.82 10^6/µL and 5.18 10^6/µL and 5.8 10^6/µL and 5.32 10^6/µL and 6.12 10^6/µL and 5.24 10^6/µL
same,Rdw,[1]; mid-dosing bleed,12.8% and 11.9% and 12.5% and 12.1% and 12.7% and 12% and 13.5% and 12.9% and 12.4% and 11.3% and 12.3%
same,Wbc,[1]; mid-dosing bleed,4.78 10^3/µL and 6.15 10^3/µL and 5.63 10^3/µL and 7.65 10^3/µL and 6 10^3/µL and 3.99 10^3/µL and 5.7 10^3/µL and 7.05 10^3/µL and 6.59 10^3/µL and 4.73 10^3/µL and 4.52 10^3/µL and 7.07 10^3/µL and 8.23 10^3/µL and 4.45 10^3/µL and 6.3 10^3/µL and 3.22 10^3/µL and 4.27 10^3/µL and 5.62 10^3/µL
same,Baso,[1]; post-dosing bleed,0.01 10^3/µL and 0.02 10^3/µL and 0 10^3/µL and 0.04 10^3/µL and 0.03 10^3/µL
same,Eos,[1]; post-dosing bleed,0.05 10^3/µL and 0.15 10^3/µL and 0.06 10^3/µL and 0.02 10^3/µL and 0.09 10^3/µL and 0.04 10^3/µL and 0.13 10^3/µL and 0.03 10^3/µL and 0.23 10^3/µL and 0.2 10^3/µL and 0.18 10^3/µL
same,Hct,[1]; post-dosing bleed,38.2% and 41.9% and 37.7% and 43% and 39.5% and 42.7% and 41% and 42.1% and 39.9% and 41.8% and 40.8% and 39.1% and 40.4% and 43.7% and 37.1% and 39.6% and 41.1%
same,Hgb,[1]; post-dosing bleed,12.2 G/Dl and 14.1 G/Dl and 12 G/Dl and 13.9 G/Dl and 12.7 G/Dl and 13.1 G/Dl and 13.5 G/Dl and 12.6 G/Dl and 13.4 G/Dl and 12.1 G/Dl and 14 G/Dl and 13 G/Dl and 11.7 G/Dl and 12.9 G/Dl
same,Lymp,[1]; post-dosing bleed,2.22 10^3/µL and 5.87 10^3/µL and 2.42 10^3/µL and 3.66 10^3/µL and 1.59 10^3/µL and 1.61 10^3/µL and 1.2 10^3/µL and 2.96 10^3/µL and 2.61 10^3/µL and 1.64 10^3/µL and 1.73 10^3/µL and 2.56 10^3/µL and 2.26 10^3/µL and 3.27 10^3/µL and 1.82 10^3/µL and 3.4 10^3/µL and 2.49 10^3/µL and 4.82 10^3/µL
same,Mch,[1]; post-dosing bleed,24 Pgs and 23.3 Pgs and 24.2 Pgs and 24.8 Pgs and 24.1 Pgs and 22.8 Pgs and 23.6 Pgs and 22.7 Pgs and 25.1 Pgs and 23.5 Pgs and 24.3 Pgs and 23 Pgs and 23.2 Pgs and 23.4 Pgs
same,Mchc,[1]; post-dosing bleed,31.9 G/Dl and 33.7 G/Dl and 31.8 G/Dl and 32.3 G/Dl and 32.2 G/Dl and 32.6 G/Dl and 32 G/Dl and 32.1 G/Dl and 31.6 G/Dl and 33.3 G/Dl and 32.8 G/Dl and 30.9 G/Dl and 32.4 G/Dl and 31.5 G/Dl and 31.4 G/Dl
same,Mcv,[1]; post-dosing bleed,74.9 fL and 69.4 fL and 76 fL and 76.5 fL and 75.1 fL and 70 fL and 75.4 fL and 73.3 fL and 71.9 fL and 75.6 fL and 71 fL and 76.1 fL and 75 fL and 71.5 fL and 72 fL and 73.8 fL and 71.1 fL
same,Mono,[1]; post-dosing bleed,0.18 10^3/µL and 0.32 10^3/µL and 0.21 10^3/µL and 0.33 10^3/µL and 0.22 10^3/µL and 0.38 10^3/µL and 0.54 10^3/µL and 0.11 10^3/µL and 0.26 10^3/µL and 0.1 10^3/µL and 0.28 10^3/µL and 0.15 10^3/µL and 0.34 10^3/µL
same,Mpv,[1]; post-dosing bleed,6.6 fL and 7.5 fL and 7.4 fL and 10.2 fL and 8.7 fL and 6.9 fL and 7.1 fL and 7 fL and 6.7 fL and 8.3 fL and 8 fL and 6.4 fL and 8.4 fL and 7.2 fL and 6.8 fL
same,Neut,[1]; post-dosing bleed,3.01 10^3/µL and 0.97 10^3/µL and 0.98 10^3/µL and 1.76 10^3/µL and 2.92 10^3/µL and 2.28 10^3/µL and 2.06 10^3/µL and 3.85 10^3/µL and 1.41 10^3/µL and 3.58 10^3/µL and 1.8 10^3/µL and 3.13 10^3/µL and 5.36 10^3/µL and 1.54 10^3/µL and 2.18 10^3/µL and 3.21 10^3/µL and 2.83 10^3/µL and 2.26 10^3/µL and 1.29 10^3/µL
same,Plt,[1]; post-dosing bleed,418 10^3/µL and 319 10^3/µL and 265 10^3/µL and 238 10^3/µL and 242 10^3/µL and 283 10^3/µL and 400 10^3/µL and 311 10^3/µL and 246 10^3/µL and 364 10^3/µL and 390 10^3/µL and 478 10^3/µL and 296 10^3/µL and 291 10^3/µL and 431 10^3/µL and 302 10^3/µL and 342 10^3/µL and 357 10^3/µL
same,Rbc,[1]; post-dosing bleed,5.1 10^6/µL and 6.04 10^6/µL and 4.96 10^6/µL and 5.62 10^6/µL and 5.26 10^6/µL and 6.1 10^6/µL and 5.44 10^6/µL and 5.74 10^6/µL and 5.55 10^6/µL and 5.53 10^6/µL and 5.75 10^6/µL and 5.14 10^6/µL and 5.39 10^6/µL and 6.11 10^6/µL and 5.61 10^6/µL and 5.03 10^6/µL and 5.57 10^6/µL and 5.49 10^6/µL
same,Rdw,[1]; post-dosing bleed,12.7% and 12.2% and 13% and 12% and 13.5% and 11.7% and 12.6% and 12.5% and 13.3% and 11.9% and 12.9% and 12.4% and 12.3% and 11% and 12.8%
same,Wbc,[1]; post-dosing bleed,5.48 10^3/µL and 7.33 10^3/µL and 3.67 10^3/µL and 5.82 10^3/µL and 4.76 10^3/µL and 4.2 10^3/µL and 3.7 10^3/µL and 7.52 10^3/µL and 4.16 10^3/µL and 5.51 10^3/µL and 3.69 10^3/µL and 6.15 10^3/µL and 8.14 10^3/µL and 5.08 10^3/µL and 4.41 10^3/µL and 7.03 10^3/µL and 5.73 10^3/µL and 4.11 10^3/µL and 6.68 10^3/µL
same,Bioluminiscence signals of mice,"[2]; AN15368_2.5mg, 19 dpi",29400000 and 22400000 and 35610000 and 24370000
same,Bioluminiscence signals of mice,"[2]; AN15368_5mg, 15 dpi",8923000 and 11990000
same,Bioluminiscence signals of mice,"[2]; AN15368_5mg, 19 dpi",2040000
